Reference: ChEMBL document CHEMBL1154622, “Structure-guided design of potent and selective pyrimidylpyrrole inhibitors of extracellular signal-regulated kinase (ERK) using conformational control” (J Med Chem, 2009)

How the values were obtained:
Aurora kinase A = target: T1, Aurora kinase A (Homo sapiens, UniProt O14965); experiment: Inhibition of AURA
T1 sequence (O14965 whole entry): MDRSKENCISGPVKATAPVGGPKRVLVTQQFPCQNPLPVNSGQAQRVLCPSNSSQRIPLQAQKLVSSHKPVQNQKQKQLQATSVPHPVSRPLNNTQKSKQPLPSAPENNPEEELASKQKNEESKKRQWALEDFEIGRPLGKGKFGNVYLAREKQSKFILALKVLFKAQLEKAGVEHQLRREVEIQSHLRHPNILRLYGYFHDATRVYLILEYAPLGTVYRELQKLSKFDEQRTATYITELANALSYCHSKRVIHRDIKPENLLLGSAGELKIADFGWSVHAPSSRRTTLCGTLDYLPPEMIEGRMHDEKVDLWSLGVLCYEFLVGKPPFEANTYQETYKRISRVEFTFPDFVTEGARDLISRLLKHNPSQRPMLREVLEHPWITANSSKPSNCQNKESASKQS

[1] = Inhibition of GSK3
HT-29 = experiment: Antiproliferative activity against human HT-29 cells; assay type: functional, cell-based
[2] = target: Mitogen-activated protein kinase 1 (Homo sapiens, UniProt P28482)
Description: Inhibition of ERK2 after 10 mins by spectrophotometric coupled-enzyme assay

[3] = target: Cyclin-dependent kinase 2 (Homo sapiens, UniProt P24941)

Chain of Mitogen-activated protein kinase 1 (P28482 whole entry): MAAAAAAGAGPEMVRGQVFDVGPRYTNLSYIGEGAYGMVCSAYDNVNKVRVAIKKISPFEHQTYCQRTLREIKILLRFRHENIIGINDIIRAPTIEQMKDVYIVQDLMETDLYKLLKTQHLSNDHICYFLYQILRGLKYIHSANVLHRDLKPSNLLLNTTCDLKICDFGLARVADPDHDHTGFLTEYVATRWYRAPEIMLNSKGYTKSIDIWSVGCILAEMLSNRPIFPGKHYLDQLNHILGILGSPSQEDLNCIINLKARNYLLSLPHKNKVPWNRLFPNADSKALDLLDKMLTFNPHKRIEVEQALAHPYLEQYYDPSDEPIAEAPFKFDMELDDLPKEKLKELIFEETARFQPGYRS

Compound	Ki (Aurora kinase A) [nM]	Ki [1] [nM]	IC50 (HT-29) [nM]	Ki [2] [nM]	Ki [3] [nM]
Cc1ccccc1Nc1ncc(C)c(-c2c[nH]c(C(=O)N[C@H](CO)c3cccc(Cl)c3)c2)n1	400	< 2	–	–	–
Cc1cnc(Nc2cccc3c2CCCC3)nc1-c1c[nH]c(C(=O)N[C@H](CO)c2cccc(Cl)c2)c1	280	667	420	13	250
Cc1cnc(Nc2ccccc2C(F)(F)F)nc1-c1c[nH]c(C(=O)N[C@H](CO)c2ccccc2)c1	> 800	–	6300	–	> 4000
CCc1ccccc1Nc1ncc(C)c(-c2c[nH]c(C(=O)N[C@H](CO)c3ccccc3)c2)n1	1430	760	66	3	210
Cc1cnc(Nc2ccccc2F)nc1-c1c[nH]c(C(=O)N[C@H](CO)c2ccccc2)c1	160	45	26	< 2	57
Cc1cnc(Nc2cccc3c2OCCO3)nc1-c1c[nH]c(C(=O)N[C@H](CO)c2cccc(Cl)c2)c1	11	45	58	15	138
Cc1cnc(Nc2cccc(F)c2C)nc1-c1c[nH]c(C(=O)N[C@H](CO)c2cccc(Cl)c2)c1	410	1260	56	34	150
Cc1cnc(Nc2ccccc2O)nc1-c1c[nH]c(C(=O)N[C@H](CO)c2ccccc2)c1	99	< 2	3000	4	< 100
Cc1cc(Cl)ccc1Nc1ncc(C)c(-c2c[nH]c(C(=O)N[C@H](CO)c3cccc(Cl)c3)c2)n1	410	1100	98	5	76
Cc1cnc(Nc2ccccc2)nc1-c1c[nH]c(C(=O)N[C@H](CO)c2cccc(Cl)c2)c1	19	140	100	< 2	290
Cc1cnc(Nc2cccc3c2CCC3)nc1-c1c[nH]c(C(=O)N[C@H](CO)c2cccc(Cl)c2)c1	550	350	250	< 2	642
COc1cccc(Nc2ncc(C)c(-c3c[nH]c(C(=O)N[C@H](CO)c4cccc(Cl)c4)c3)n2)c1OC	> 200	> 2500	230	3	> 2500
Cc1ccccc1Nc1ncc(C)c(-c2c[nH]c(C(=O)N[C@H](CO)c3ccccc3)c2)n1	860	–	–	–	–
Cc1cnc(Nc2cccc3c2OCO3)nc1-c1c[nH]c(C(=O)N[C@H](CO)c2cccc(Cl)c2)c1	15	33	58	< 2	209
CCc1ccccc1Nc1ncc(C)c(-c2c[nH]c(C(=O)N[C@H](CO)c3cccc(Cl)c3)c2)n1	720	150	39	< 2	450
Cc1cnc(Nc2ccccc2Cl)nc1-c1c[nH]c(C(=O)N[C@H](CO)c2ccccc2)c1	1550	190	–	< 2	240
Cc1cnc(Nc2cccc3c2OC(F)(F)O3)nc1-c1c[nH]c(C(=O)N[C@H](CO)c2cccc(Cl)c2)c1	> 800	310	280	< 2	170
Cc1cnc(Nc2ccccc2)nc1-c1c[nH]c(C(=O)N[C@H](CO)c2ccccc2)c1	15	–	29	< 2	–
Cc1cccc([C@@H](CO)NC(=O)c2cc(-c3nc(Nc4ccccc4)ncc3C)c[nH]2)c1	45	26	40	< 2	69
Cc1cnc(Nc2ccccc2)nc1-c1c[nH]c(C(=O)N[C@@H](CO)c2ccccc2)c1	270	–	–	670	–
Cc1cnc(Nc2cccc(C)c2C)nc1-c1c[nH]c(C(=O)N[C@H](CO)c2cccc(Cl)c2)c1	440	110	–	< 2	41
Cc1cnc(Nc2ccc(Cl)cc2F)nc1-c1c[nH]c(C(=O)N[C@H](CO)c2cccc(Cl)c2)c1	540	450	97	5	316
